Experimental data as given in patent US20200253868A1, “CELL AUTOPHAGY INHIBITOR AND PREPARATION METHOD THEREFOR AND APPLICATION THEREOF” (CHINA PHARMACEUTICAL UNIVERSITY, priority 2017, published 2020).

Experiments:
[1] = system: KRAS dependent H441 cells; test: MTT assay of cell viability; assay type: cell-based, human; conditions: H441, 0, 50, 100, 200 nM, 24 hours
Method: (§1) MTT assay is used to determine the cell viability. KRAS independent A549 and H460 and KRAS dependent H441 and H358 cell lines which are cultured overnight in a 10% FBS medium, are digested by trypsin to form cell suspensions, which are seeded at a suitable concentration on a 96-well plate with 100 μl/well, cultured in a CO2 incubator for 24 hours until the cells are completely attached, and RA-V (1) with a final concentration of 0, 50, 100, 200 nM is added to react for 24 hours, and then 20 μl of MTT solution (5 mg/ml in PBS, pH=7.4) is added to each well and continue to incubate for 4 hours, stop the culture, and carefully discard the culture supernatant in the wells. Add 150 μl DMSO to each well and shake for 10 minutes to fully dissolve the crystals. Select the wavelength of 490 nm, measure the light absorption value of each well on the enzyme-linked immunosorbent detector, record the results, draw the cell growth curve with time as the abscissa and absorbance value as the ordinate.

[2] = system: KRAS dependent H358 cells; test: MTT assay of cell viability; assay type: cell-based, human; conditions: H358, 0, 50, 100, 200 nM, 24 hours
Method: as §1

[3] = system: KRAS dependent H441 cells; test: Western blot of autophagy-related proteins LC3, Atg7 and Beclin1; assay type: cell-based, human; conditions: H441, 0, 50, 100, 200 nM, 24 hours
Method: (§2) KRAS dependent H441 and H358 cells which are cultured overnight in a 10% FBS medium are seeded in a 24-well plate at an appropriate density, after 24 hours, RA-V (1) with a concentration of 0, 50, 100, and 200 nM is added to react for 24 hours, and then the cells are collected to detect the expression levels of autophagy-related proteins LC3, Atg7 and Beclin1 by the Western blot experiment.

[4] = system: KRAS dependent H358 cells; test: as above; assay type: cell-based, human; conditions: H358, 0, 50, 100, 200 nM, 24 hours
Method: as §2

[5] = system: KRAS independent A549 cells; test: PI/Annexin V double staining, flow cytometry; assay type: cell-based, human; conditions: A549, 24 hours
Method: (§3) KRAS independent A549 and H460 and KRAS dependent H441 and H358 cell lines which are cultured overnight in a 10% FBS medium, are digested by trypsin to form cell suspensions, which are seeded at a suitable concentration on a 6-well plate, after 24 h, RA-V (1) is added to treat for 24 hours, and are digested by trypsin, and centrifuge at 2000 rpm for 5-10 minutes at room temperature to collect cells; resuspend the cells once with pre-chilled 1×PBS (4° C.), centrifuge at 2000 rpm for 5-10 minutes, and wash the cells; add 300 μL of 1×Binding Buffer to resuspend the cells; add 5 μL of Annexin V-FITC and mix, and incubate for 15 minutes at room temperature away from light; add 5 μL of PI staining 5 minutes before the operation, and detect the cells by the flow cytometry.

[6] = system: KRAS independent H460 cells; test: PI/Annexin V double staining, flow cytometry; assay type: cell-based, human; conditions: H460, 24 hours
Method: as §3

[7] = system: KRAS dependent H441 cells; test: PI/Annexin V double staining, flow cytometry; assay type: cell-based, human; conditions: H441, 24 hours
Method: as §3

[8] = system: KRAS dependent H358 cells; test: PI/Annexin V double staining, flow cytometry; assay type: cell-based, human; conditions: H358, 24 hours
Method: as §3

H441 cells = test: Western blot of Capsase3, BCL-2 and BCL-XL; assay type: cell-based, human
[9] = system: KRAS dependent H441 cells; test: GFP-LC3 transfection, autophagosome formation by fluorescence microscope; assay type: cell-based, human; conditions: H441, 24 hours
Method: (§4) KRAS dependent H441 and H358 cells which are cultured overnight in a 10% FBS medium are seeded in a 24-well plate at an appropriate density and transfected with the GFP-LC3 plasmid, after 24 hours, RA-V (1) is added to react for 24 hours, and the localization of GFP-LC3 is observed with a fluorescence microscope, and the number of autophagy cells is calculated quantitatively.

[10] = system: KRAS dependent H358 cells; test: as above; assay type: cell-based, human; conditions: H358, 24 hours
Method: as §4

H460 cells = test: Western blot of Capsase3, BCL-2 and BCL-XL; assay type: cell-based, human
Method: (§5) […] A549 and H460 cells which are cultured overnight in a 10% FBS medium are seeded in a 24-well plate at an appropriate density, after 24 hours, the cells are collected to detect the expression levels of […] proteins BCL-2, BCL-XL and […]3 by the Western blot experiment.

A549 cells = test: Western blot of Capsase3, BCL-2 and BCL-XL; assay type: cell-based, human
Method: as §5

H358 cells = test: Western blot of Capsase3, BCL-2 and BCL-XL; assay type: cell-based, human
[11] = system: KRAS dependent H441 model; test: Human lung cancer xenograft in nude mice, tumor inhibition rate; assay type: in vivo, BABL/c nude mice; conditions: 2.5 mg/kg, nano-micelle injection, tail vein, once every other day, 14 days
Method: (§6) Human lung cancer cells KRAS dependent H441 and KRAS independent H460 are diluted with physiological saline to 1×10^7 cells/mL, and 100 μL of the cell suspension is inoculated subcutaneously in the left armpit of BABL/c nude mice and grown for 7 days to form tumor-bearing mouse model. The tumor-bearing mice with good growth are inoculated and randomly divided into groups. The RA-V nano-micelle injection prepared in Embodiment 3 is administered through the tail vein and administered once every other day, and the animals used are sacrificed 14 days after the administration, and the tumors are removed and weighed, calculate tumor suppression rate and perform statistical processing. Tumor inhibition rate (%)=(average tumor weight in the control group-average tumor weight in the experimental group)/average tumor weight in the control group×100%.

[12] = system: KRAS independent H460 model; test: as above; assay type: in vivo, BABL/c nude mice; conditions: 2.5 mg/kg, nano-micelle injection, tail vein, once every other day, 14 days
Method: as §6

[13] = system: KRAS mutant HCT116 nude mice xenograft; test: Human colon cancer xenograft in nude mice, tumor inhibition rate; assay type: in vivo, BABL/c nude mice; conditions: injection via tail vein, once every other day, 14 days
Method: (§7) HCT116 is diluted with serum-free McCoy's 5a medium to 1×10^7 cells/mL, and 100 μL of the cell suspension is inoculated subcutaneously in the left armpit of BABL/c nude mice and grown for 7 days to form a tumor-bearing mouse model. The tumor-bearing mice with good growth are inoculated and randomly divided into groups. The RA-V nano-micelle injection prepared in Embodiment 3 is administered through the tail vein and administered once every other day, and the animals used are sacrificed 14 days after the administration, and the tumors are removed and weighed, calculate tumor suppression rate and perform statistical processing. Tumor inhibition rate (%)=(average tumor weight in the control group-average tumor weight in the experimental group)/average tumor weight in the control group×100%.
as §7, with “RA-XII(2)” for “The RA-V nano-micelle”, “injection” for “injection prepared in Embodiment 3”

Compound	cell survival (MTT) [1]	cell survival (MTT) [2]	expression levels of LC3-II, Atg7 and Beclin1 [3]	expression levels of LC3-II, Atg7 and Beclin1 [4]	cell apoptosis (PI/Annexin V) [5]	cell apoptosis (PI/Annexin V) [6]	cell apoptosis (PI/Annexin V) [7]	cell apoptosis (PI/Annexin V) [8]	cell apoptosis by expression of Capsase3, BCL-2 and BCL-XL (H441 cells)	GFP-LC3 of treated cells compared with the blank group [9]	GFP-LC3 of treated cells compared with the blank group [10]	cell apoptosis by expression of Capsase3, BCL-2 and BCL-XL (H460 cells)	cell apoptosis by expression of Capsase3, BCL-2 and BCL-XL (A549 cells)	cell apoptosis by expression of Capsase3, BCL-2 and BCL-XL (H358 cells)	tumor inhibition rate [11]	anti-tumor effect [12]	tumor inhibition rate ([13]; HCT116, high dosage)	tumor inhibition rate ([13]; HCT116, medium dosage)
COc1ccc(C[C@H]2C(=O)N[C@@H](C)C(=O)N(C)C3Cc4ccc(cc4)Oc4cc(ccc4O)C[C@@H](C(=O)N[C@H](C)C(=O)N[C@@H](C)C(=O)N2C)N(C)C3=O)cc1 [RA-V (1), RA-V]	inhibits the survival	inhibits the survival	decrease with the increase of the concentration	decrease with the increase of the concentration	no significant effect	no significant effect	significantly induces the cell apoptosis	significantly induces the cell apoptosis	significantly induces the cell apoptosis	significantly reduce	significantly reduce	no significant effect	no significant effect	significantly induces the cell apoptosis	50.4%	not effective	66.67%	41.67%
COc1ccc(C[C@H]2C(=O)N[C@@H](C)C(=O)N(C)C3Cc4ccc(cc4)Oc4cc(ccc4O[C@@H]4OC(CO)[C@@H](O)[C@H](O)C4O)C[C@@H](C(=O)N[C@H](C)C(=O)N[C@@H](C)C(=O)N2C)N(C)C3=O)cc1 (some centres unmarked) [RA-XII (2), RA-XII]																	79.92%	68.47%
